The target of data set [1] is T1, Sodium- and chloride-dependent glycine transporter 1 (Homo sapiens, UniProt P48067).
T1 sequence (P48067 whole entry): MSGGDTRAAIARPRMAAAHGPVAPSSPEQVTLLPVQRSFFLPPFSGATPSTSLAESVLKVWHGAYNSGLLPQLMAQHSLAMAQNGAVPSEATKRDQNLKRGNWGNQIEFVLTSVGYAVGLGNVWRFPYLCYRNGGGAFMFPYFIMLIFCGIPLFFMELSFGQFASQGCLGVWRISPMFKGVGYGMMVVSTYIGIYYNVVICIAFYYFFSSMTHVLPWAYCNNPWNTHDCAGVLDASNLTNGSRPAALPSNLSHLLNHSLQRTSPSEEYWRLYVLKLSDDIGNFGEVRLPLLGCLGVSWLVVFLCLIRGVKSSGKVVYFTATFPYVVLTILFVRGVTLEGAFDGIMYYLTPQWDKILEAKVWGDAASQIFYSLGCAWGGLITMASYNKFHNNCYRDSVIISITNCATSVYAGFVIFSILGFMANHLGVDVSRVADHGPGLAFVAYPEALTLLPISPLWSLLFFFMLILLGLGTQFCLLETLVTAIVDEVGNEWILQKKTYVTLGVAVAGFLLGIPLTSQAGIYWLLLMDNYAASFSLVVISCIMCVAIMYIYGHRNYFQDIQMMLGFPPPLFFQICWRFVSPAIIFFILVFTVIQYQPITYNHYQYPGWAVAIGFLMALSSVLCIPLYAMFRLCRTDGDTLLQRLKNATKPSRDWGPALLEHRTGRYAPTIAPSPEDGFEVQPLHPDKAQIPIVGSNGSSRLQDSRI
In words: Inhibition of human glycine transporter 1.

Data set [2] has as its target T2, Sodium- and chloride-dependent glycine transporter 2 (Homo sapiens, UniProt Q9Y345).
T2 sequence (Q9Y345 whole entry): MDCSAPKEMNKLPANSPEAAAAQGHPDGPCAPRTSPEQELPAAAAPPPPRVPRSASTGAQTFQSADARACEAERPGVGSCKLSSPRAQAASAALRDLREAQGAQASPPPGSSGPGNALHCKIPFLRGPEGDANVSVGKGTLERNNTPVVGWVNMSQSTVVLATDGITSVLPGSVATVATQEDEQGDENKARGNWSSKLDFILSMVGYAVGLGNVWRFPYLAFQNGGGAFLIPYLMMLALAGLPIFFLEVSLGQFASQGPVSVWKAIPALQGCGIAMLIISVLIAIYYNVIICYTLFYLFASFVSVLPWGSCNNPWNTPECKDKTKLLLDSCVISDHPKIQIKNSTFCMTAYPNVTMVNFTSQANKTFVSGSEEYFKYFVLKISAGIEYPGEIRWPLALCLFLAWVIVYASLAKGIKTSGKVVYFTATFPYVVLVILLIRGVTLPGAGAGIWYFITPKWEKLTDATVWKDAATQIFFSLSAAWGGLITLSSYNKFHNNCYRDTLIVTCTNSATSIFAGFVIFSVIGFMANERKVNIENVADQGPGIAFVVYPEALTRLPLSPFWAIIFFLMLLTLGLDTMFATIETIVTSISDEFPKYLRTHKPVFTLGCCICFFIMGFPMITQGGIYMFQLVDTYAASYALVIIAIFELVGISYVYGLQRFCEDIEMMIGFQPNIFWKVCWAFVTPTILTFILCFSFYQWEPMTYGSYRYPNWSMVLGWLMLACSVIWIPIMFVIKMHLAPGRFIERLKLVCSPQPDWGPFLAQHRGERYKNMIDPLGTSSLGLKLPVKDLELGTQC
The experiment in a line: Inhibition of glycine transporter 2.

For data set [3], the target named is T3, Sodium- and chloride-dependent taurine transporter (Homo sapiens, UniProt P31641).
T3 sequence (P31641 whole entry): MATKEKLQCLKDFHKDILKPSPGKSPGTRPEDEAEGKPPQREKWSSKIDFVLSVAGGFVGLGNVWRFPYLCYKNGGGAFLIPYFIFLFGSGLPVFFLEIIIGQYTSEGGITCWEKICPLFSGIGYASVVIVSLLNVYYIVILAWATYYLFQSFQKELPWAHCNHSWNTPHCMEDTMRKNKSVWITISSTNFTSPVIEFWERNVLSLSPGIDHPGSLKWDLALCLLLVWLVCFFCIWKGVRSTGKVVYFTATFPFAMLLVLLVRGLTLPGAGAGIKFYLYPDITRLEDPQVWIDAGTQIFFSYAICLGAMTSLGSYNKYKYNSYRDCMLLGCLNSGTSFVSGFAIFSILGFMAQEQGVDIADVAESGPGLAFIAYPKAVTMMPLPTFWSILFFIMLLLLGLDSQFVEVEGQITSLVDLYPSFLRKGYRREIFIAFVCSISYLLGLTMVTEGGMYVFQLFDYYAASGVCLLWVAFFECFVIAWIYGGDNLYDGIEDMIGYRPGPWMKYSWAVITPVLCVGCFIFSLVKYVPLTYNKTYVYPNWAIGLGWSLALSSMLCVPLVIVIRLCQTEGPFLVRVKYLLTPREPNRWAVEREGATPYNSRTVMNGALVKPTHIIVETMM
The experiment in a line: Inhibition of taurine transporter. Type of data set: single protein.

The nature of data set [4]: Solubility in water. It is filed as physicochemical.
Data set [5] addresses T1, Sodium- and chloride-dependent glycine transporter 1. The experiment in a line: Inhibition of glycine transporter 1 by HTS assay.

Usually IC50 stands for the midpoint of a concentration-inhibition curve. A high value points to a need for much substance. Usually solubility stands for how much of the substance goes into solution per volume. A high value points to much dissolved substance.

Take `CCCS(=O)(=O)N1CCC(CNC(=O)c2ccccc2OC(F)(F)F)(c2ccccn2)CC1`: the IC50 in data set [1] was 19.4 nM; in data set [2], over 30000 nM; in data set [3], over 30000 nM.
For `CCCS(=O)(=O)N1CCC(CNC(=O)c2ccccc2)(c2cccc(C)n2)CC1`, the values for the IC50 in data set [1], in data set [2] and in data set [3] were 54.7 nM, over 30000 nM and over 30000 nM, respectively.
In the case of `CCCS(=O)(=O)N1CCC(CNC(=O)c2c(Cl)cccc2Cl)(c2ccccn2)CC1`, the figures for the concentration for half-maximal inhibition (IC50) in data set [1], in data set [2] and in data set [3] were 6.6 nM, over 30000 nM and over 30000 nM, respectively.
For `CCCS(=O)(=O)N1CCC(CNC(=O)c2cccc(Cl)c2)(c2ccccn2)CC1`, the values for the IC50 in data set [1], in data set [2] and in data set [3] were 517 nM, over 30000 nM and over 30000 nM, respectively.
As for `CCCS(=O)(=O)N1CCC(CNC(=O)c2ccccc2)(c2cccc(OC)n2)CC1`, the IC50 in data set [1] was 48.3 nM; in data set [2], over 30000 nM; in data set [3], over 30000 nM.
Take `CCCS(=O)(=O)N1CCC(CNC(=O)c2cccc(C)c2)(c2ccccn2)CC1`: the 50% inhibitory concentration (IC50) in data set [1] is 833 nM; in data set [2], over 30000 nM; in data set [3], over 30000 nM.
Consider `CCCS(=O)(=O)N1CCC(CNC(=O)c2ccc(Cl)cc2Cl)(c2cccc(C)n2)CC1`, for which the IC50 in data set [1] is 2.5 nM; in data set [2], over 30000 nM; in data set [3] it was over 30000 nM.
`CCCS(=O)(=O)N1CCC(CNC(=O)c2ccc(Cl)cc2Cl)(c2cccc(OC)n2)CC1`: the IC50 was 7.4 nM in data set [1], over 30000 nM in data set [2] and over 30000 nM in data set [3].
Consider `CCCS(=O)(=O)N1CCC(c2ccccn2)([C@H](C)NC(=O)c2cc(F)cc(F)c2Cl)CC1`, for which the IC50 in data set [1] was 4 nM; in data set [2], over 30000 nM; in data set [3] it was over 30000 nM.
`CCCS(=O)(=O)N1CCC(CNC(=O)c2c(F)ccc(F)c2Cl)(c2ccccn2)CC1`: the half-inhibitory concentration (IC50) is 5.7 nM in data set [1], over 30000 nM in data set [2] and over 30000 nM in data set [3].
On to `CCCS(=O)(=O)N1CCC(CNC(=O)c2ccccc2)(c2ccccn2)CC1`, for which the IC50 is 107 nM in data set [1], over 30000 nM in data set [2] and over 30000 nM in data set [3].
With `CCCS(=O)(=O)N1CCC(CNC(=O)c2ccc(Cl)c(Cl)c2)(c2ccccn2)CC1`, the IC50 in data set [1] was 131 nM; in data set [2] it was over 30000 nM; in data set [3], over 30000 nM.
For `CCCS(=O)(=O)N1CCC(CNC(=O)c2ccccc2Cl)(c2cccc(C)n2)CC1`, the IC50 in data set [1] is 3 nM; in data set [2] it was over 30000 nM; in data set [3], over 30000 nM.
Take `CCCS(=O)(=O)N1CCC(CNC(=O)c2ccccc2)(c2cc(C)ccn2)CC1`: the figures for the IC50 in data set [1], in data set [2] and in data set [3] were 129 nM, over 30000 nM and over 30000 nM, respectively.
Turning to `CCCS(=O)(=O)N1CCC(CNC(=O)c2ccccc2F)(c2ccccn2)CC1`, the IC50 in data set [1] is 49.4 nM; in data set [2], over 30000 nM; in data set [3], over 30000 nM.
On to `CCCS(=O)(=O)N1CCC(CNC(=O)c2ccccc2C)(c2ccccn2)CC1`, for which the IC50 is 19.5 nM in data set [1], over 30000 nM in data set [2] and over 30000 nM in data set [3].
Compound `CCCS(=O)(=O)N1CCC(CNC(=O)c2ccc(Cl)cc2Cl)(c2ccccn2)CC1.Cl` displayed a solubility in data set [4] of 850 µg/mL.
Consider `CCCS(=O)(=O)N1CCC(CNC(=O)c2ccc(Cl)cc2)(c2ccccn2)CC1`, for which the half-maximal inhibitory concentration (IC50) in data set [1] was 103 nM; in data set [2] it was over 30000 nM; in data set [3], over 30000 nM.
In the case of `CCCS(=O)(=O)N1CCC(c2ccccc2)([C@H](C)NC(=O)c2c(N)cccc2Cl)CC1`, half-maximal inhibition in data set [5] (IC50) required 2.6 nM.
With `CCCS(=O)(=O)N1CCC(c2ccccn2)([C@H](C)NC(=O)c2ccccc2OC(F)(F)F)CC1`, the IC50 in data set [1] was 17.7 nM; in data set [2], over 30000 nM; in data set [3] it was over 30000 nM.
With `CCCS(=O)(=O)N1CCC(CNC(=O)c2ccc(Cl)cc2Cl)(c2ccccn2)CC1`, the IC50 was 4.4 nM in data set [1], over 30000 nM in data set [2] and over 30000 nM in data set [3].
As to `CCCS(=O)(=O)N1CCC(CNC(=O)c2ccccc2OC)(c2ccccc2)CC1`, the IC50 in data set [5] was 130 nM.
Take `CCCS(=O)(=O)N1CCC(CNC(=O)c2ccccc2Cl)(c2cccc(OC)n2)CC1`: the IC50 was 6.9 nM in data set [1], over 30000 nM in data set [2] and over 30000 nM in data set [3].
As to `CCCS(=O)(=O)N1CCC(c2ccccn2)([C@H](C)NC(=O)c2ccc(Cl)cc2Cl)CC1`, the IC50 in data set [1] is 3 nM; in data set [2], over 30000 nM; in data set [3] it was over 30000 nM.
In turn, `CCCS(=O)(=O)N1CCC(CNC(=O)c2c(Cl)ccc(Cl)c2F)(c2ccccn2)CC1.Cl` had a solubility in data set [4] of 570 µg/mL.
On to `CCCS(=O)(=O)N1CCC(CNC(=O)c2c(N)cccc2Cl)(c2ccccn2)CC1`, for which the figures for the IC50 in data set [1], in data set [2] and in data set [3] were 6.9 nM, over 30000 nM and over 30000 nM, respectively.
Turning to `CCCS(=O)(=O)N1CCC(CNC(=O)c2ccc(Cl)cc2Cl)(c2cc(C)ccn2)CC1`, the figures for the IC50 in data set [1], in data set [2] and in data set [3] were 3.5 nM, over 30000 nM and over 30000 nM, respectively.
In the case of `CCCS(=O)(=O)N1CCC(CNC(=O)c2ccccc2Cl)(c2cc(C)ccn2)CC1`, the IC50 was 38.3 nM in data set [1], over 30000 nM in data set [2] and over 30000 nM in data set [3].
On to `CCCS(=O)(=O)N1CCC(CNC(=O)c2ccccc2Cl)(c2ccccn2)CC1`, for which the IC50 in data set [1] was 11.9 nM; in data set [2], over 30000 nM; in data set [3], over 30000 nM.
For the compound `CCCS(=O)(=O)N1CCC(CNC(=O)c2ccccc2C(F)(F)F)(c2ccccn2)CC1`, the values for the IC50 in data set [1], in data set [2] and in data set [3] were 31.3 nM, over 30000 nM and over 30000 nM, respectively.

Values taken from ChEMBL document CHEMBL1152872, “Discovery of N-{[1-(propylsulfonyl)-4-pyridin-2-ylpiperidin-4-yl]methyl}benzamides as novel, selective and potent GlyT1 inhibitors” (Bioorg Med Chem Lett, 2009).
